# Organism: Rattus norvegicus
# Assay: Open TG-GATES - Regimen: Single
# Format: toxicity, organism-based, Sprague-Dawley
# Set-up: regimen Single, gender Male, age 6 weeks
# Conditions: in vivo, po, 0 mg/kg, route gavage, dose level Control; for APTT / Bas / Eos / Fbg / Hb / Ht / Lym / MCH / MCHC / MCV / Mono / Neu / PT / Plat / RBC / Ret / WBC: tissue Blood; for KIDNEY_L / KIDNEY_R / KIDNEY_TOTAL: tissue Kidney; for LIVER: tissue Liver; for A/G / ALP / ALT / AST / BUN / CRE / Ca / Cl / DBIL / GLC / IP / K / LDH / Na / PL / RALB / TBIL / TC / TG / TP / gamma-GTP: tissue Plasma
smiles,measurement,setting,value
CC(=O)Nc1ccc2c(c1)Cc1ccccc1-2 [2-ACETYLAMINOFLUORENE],TERMINAL_BW,3 h,224.8 g
same,APTT,3 h,20.9 s
same,Bas,3 h,0%
same,Eos,3 h,1%
same,Fbg,3 h,222.8 mg/dL
same,Hb,3 h,13.6 g/dL
same,Ht,3 h,39.5%
same,Lym,3 h,76.8%
same,MCH,3 h,21.5 pg
same,MCHC,3 h,34.5%
same,MCV,3 h,62.4 fL
same,Mono,3 h,2.4%
same,Neu,3 h,18.4%
same,PT,3 h,11.9 s
same,Plat,3 h,128.1 x10_4/uL
same,RBC,3 h,632.6 x10_4/ul
same,Ret,3 h,7.4%
same,WBC,3 h,87.7 x10_2/uL
same,KIDNEY_L,3 h,1 g
same,KIDNEY_R,3 h,1 g
same,KIDNEY_TOTAL,3 h,2 g
same,LIVER,3 h,10.3 g
same,A/G,3 h,1.7
same,ALP,3 h,1018.4 IU/L
same,ALT,3 h,36.6 IU/L
same,AST,3 h,77.4 IU/L
same,BUN,3 h,10.8 mg/dL
same,CRE,3 h,0.4 mg/dL
same,Ca,3 h,10.5 mg/dL
same,Cl,3 h,103.2 meq/L
same,DBIL,3 h,0.072 mg/dL
same,GLC,3 h,194.8 mg/dL
same,IP,3 h,9.7 mg/dL
same,K,3 h,4 meq/L
same,LDH,3 h,161.8 IU/L
same,Na,3 h,141 meq/L
same,PL,3 h,141.6 mg/dL
same,RALB,3 h,3.4 g/dL
same,TBIL,3 h,0.1 mg/dL
same,TC,3 h,77.8 mg/dL
same,TG,3 h,61.6 mg/dL
same,TP,3 h,5.5 g/dL
same,gamma-GTP,3 h,0.8 IU/L
same,TERMINAL_BW,6 h,219.6 g
same,APTT,6 h,20.9 s
same,Bas,6 h,0.6%
same,Eos,6 h,0.6%
same,Fbg,6 h,225.4 mg/dL
same,Hb,6 h,14.2 g/dL
same,Ht,6 h,40.9%
same,Lym,6 h,78.2%
same,MCH,6 h,21.8 pg
same,MCHC,6 h,34.6%
same,MCV,6 h,63.1 fL
same,Mono,6 h,2.8%
same,Neu,6 h,16.8%
same,PT,6 h,12.2 s
same,Plat,6 h,131.8 x10_4/uL
same,RBC,6 h,649.8 x10_4/ul
same,Ret,6 h,6.9%
same,WBC,6 h,108.9 x10_2/uL
same,KIDNEY_L,6 h,1 g
same,KIDNEY_R,6 h,1 g
same,KIDNEY_TOTAL,6 h,2 g
same,LIVER,6 h,9.3 g
same,A/G,6 h,1.7
same,ALP,6 h,956.2 IU/L
same,ALT,6 h,32.4 IU/L
same,AST,6 h,70.4 IU/L
same,BUN,6 h,9.6 mg/dL
same,CRE,6 h,0.4 mg/dL
same,Ca,6 h,10.5 mg/dL
same,Cl,6 h,101.4 meq/L
same,DBIL,6 h,0.076 mg/dL
same,GLC,6 h,196 mg/dL
same,IP,6 h,9.7 mg/dL
same,K,6 h,4.2 meq/L
same,LDH,6 h,166.6 IU/L
same,Na,6 h,140.4 meq/L
same,PL,6 h,139 mg/dL
same,RALB,6 h,3.4 g/dL
same,TBIL,6 h,0.1 mg/dL
same,TC,6 h,72.2 mg/dL
same,TG,6 h,89.8 mg/dL
same,TP,6 h,5.4 g/dL
same,gamma-GTP,6 h,1.2 IU/L
same,TERMINAL_BW,9 h,217 g
same,APTT,9 h,17.7 s
same,Bas,9 h,0.8%
same,Eos,9 h,0.8%
same,Fbg,9 h,241.4 mg/dL
same,Hb,9 h,13.9 g/dL
same,Ht,9 h,40.5%
same,Lym,9 h,75.2%
same,MCH,9 h,21.8 pg
same,MCHC,9 h,34.3%
same,MCV,9 h,63.4 fL
same,Mono,9 h,2.8%
same,Neu,9 h,19.4%
same,PT,9 h,12 s
same,Plat,9 h,124 x10_4/uL
same,RBC,9 h,639.4 x10_4/ul
same,Ret,9 h,6.7%
same,WBC,9 h,86.2 x10_2/uL
same,KIDNEY_L,9 h,1 g
same,KIDNEY_R,9 h,1 g
same,KIDNEY_TOTAL,9 h,1.9 g
same,LIVER,9 h,9.2 g
same,A/G,9 h,1.5
same,ALP,9 h,861.2 IU/L
same,ALT,9 h,32.4 IU/L
same,AST,9 h,67.8 IU/L
same,BUN,9 h,11.2 mg/dL
same,CRE,9 h,0.4 mg/dL
same,Ca,9 h,10.6 mg/dL
same,Cl,9 h,104 meq/L
same,DBIL,9 h,0.06 mg/dL
same,GLC,9 h,210.4 mg/dL
same,IP,9 h,9 mg/dL
same,K,9 h,3.7 meq/L
same,LDH,9 h,239.6 IU/L
same,Na,9 h,141 meq/L
same,PL,9 h,134.8 mg/dL
same,RALB,9 h,3.5 g/dL
same,TBIL,9 h,0.1 mg/dL
same,TC,9 h,73.6 mg/dL
same,TG,9 h,49.2 mg/dL
same,TP,9 h,5.7 g/dL
same,gamma-GTP,9 h,1 IU/L
same,TERMINAL_BW,24 h,237.9 g
same,APTT,24 h,20.8 s
same,Bas,24 h,0.2%
same,Eos,24 h,0.8%
same,Fbg,24 h,217.2 mg/dL
same,Hb,24 h,13.8 g/dL
same,Ht,24 h,40.1%
same,Lym,24 h,82%
same,MCH,24 h,22.5 pg
same,MCHC,24 h,34.3%
same,MCV,24 h,65.4 fL
same,Mono,24 h,3%
same,Neu,24 h,13.2%
same,PT,24 h,11.9 s
same,Plat,24 h,121.3 x10_4/uL
same,RBC,24 h,612 x10_4/ul
same,Ret,24 h,6.8%
same,WBC,24 h,101.1 x10_2/uL
same,KIDNEY_L,24 h,1.1 g
same,KIDNEY_R,24 h,1.1 g
same,KIDNEY_TOTAL,24 h,2.1 g
same,LIVER,24 h,11.4 g
same,A/G,24 h,1.7
same,ALP,24 h,1055.8 IU/L
same,ALT,24 h,40 IU/L
same,AST,24 h,69.4 IU/L
same,BUN,24 h,14.8 mg/dL
same,CRE,24 h,0.4 mg/dL
same,Ca,24 h,10.8 mg/dL
same,Cl,24 h,103.8 meq/L
same,DBIL,24 h,0.09 mg/dL
same,GLC,24 h,214.6 mg/dL
same,IP,24 h,8.3 mg/dL
same,K,24 h,3.9 meq/L
same,LDH,24 h,192.8 IU/L
same,Na,24 h,140.4 meq/L
same,PL,24 h,132.2 mg/dL
same,RALB,24 h,3.4 g/dL
same,TBIL,24 h,0.2 mg/dL
same,TC,24 h,64.2 mg/dL
same,TG,24 h,95.8 mg/dL
same,TP,24 h,5.4 g/dL
same,gamma-GTP,24 h,1.2 IU/L

# Source: ChEMBL document CHEMBL3885861, “Open TG-GATES”
